Assays:
Assay in all cases: Bliss excess, mean over the matrix (fraction); higher = more synergy
[1] = test system: CHSA8926 (Chondrosarcoma)
Summary of the method: (§1)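 After 24 hours at 37°C and 5% CO2 in 1536-well plates, cells in DMEM/F12 or RPMI plus 10% FBS received two-drug dose matrices for 72 hours. Viability came from CellTiter-Glo 2.0 luminescence and was scaled as inhibition, anchored at 0 by vehicle wells and at 1 by blank wells. Combination Emax is taken as the second-highest inhibition in the matrix, and Bliss excess as the observed combination effect less EA + EB − EA·EB, with EA and EB the single-agent effects.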

[2] = test system: CW-2 (Colorectal Carcinoma)
Summary of the method: as §1

[3] = test system: DAN-G (Pancreatic Carcinoma)
Summary of the method: as §1

[4] = test system: DMS-114 (Small Cell Lung Carcinoma)
Summary of the method: as §1

[5] = test system: H9 (T-Cell Non-Hodgkin's Lymphoma)
Summary of the method: as §1

[6] = test system: HCC1187 (Breast Carcinoma)
Summary of the method: as §1

[7] = test system: HCC1419 (Breast Carcinoma)
Summary of the method: as §1

[8] = test system: KU812 (Chronic Myelogenous Leukemia)
Summary of the method: as §1

[9] = test system: KYSE-270 (Esophageal Squamous Cell Carcinoma)
Summary of the method: as §1

[10] = test system: MN-60 (B-Lymphoblastic Leukemia)
Summary of the method: as §1

[11] = test system: MOG-G-CCM (Low Grade Glioma)
Summary of the method: as §1

[12] = test system: NCCIT (Other Solid Carcinomas)
Summary of the method: as §1

[13] = test system: NCI-H3122 (Lung Adenocarcinoma)
Summary of the method: as §1

[14] = test system: NCI-H526 (Small Cell Lung Carcinoma)
Summary of the method: as §1

[15] = test system: PC-3 (Prostate Carcinoma)
Summary of the method: as §1

RD (Rhabdomyosarcoma) = test system: RD (Rhabdomyosarcoma)
Summary of the method: as §1

[16] = test system: SK-GT-4 (Esophageal Adenocarcinoma)
Summary of the method: as §1

[17] = test system: ST486 (Burkitt's Lymphoma)
Summary of the method: as §1

[18] = test system: SUP-B15 (B-Lymphoblastic Leukemia)
Summary of the method: as §1

[19] = test system: VMRC-RCZ (Kidney Carcinoma)
Summary of the method: as §1

Compound | Bliss excess [1] | Bliss excess [2] | Bliss excess [3] | Bliss excess [4] | Bliss excess [5] | Bliss excess [6] | Bliss excess [7] | Bliss excess [8] | Bliss excess [9] | Bliss excess [10] | Bliss excess [11] | Bliss excess [12] | Bliss excess [13] | Bliss excess [14] | Bliss excess [15] | Bliss excess (RD (Rhabdomyosarcoma)) | Bliss excess [16] | Bliss excess [17] | Bliss excess [18] | Bliss excess [19]
CCN(CCO)CCCOc1ccc2c(Nc3cc(CC(=O)Nc4cccc(F)c4)[nH]n3)ncnc2c1 [AZD2811] + C=CCn1c(=O)c2cnc(Nc3ccc(N4CCN(C)CC4)cc3)nc2n1-c1cccc(C(C)(C)O)n1 [AZD1775] (first compound max 1 µM, partner max 1 µM) | 0.0032 | -0.0169 | -0.0144 | -0.0129 | 0.0252 | -0.0086 | -0.0545 | -0.034 | -0.0281 | 0.0139 | -0.0178 | -0.0037 | -0.0512 | -0.0226 | -0.0117 | -0.0222 | -0.0545 | -0.0925 | 0.044 | -0.0512
CCN(CCO)CCCOc1ccc2c(Nc3cc(CC(=O)Nc4cccc(F)c4)[nH]n3)ncnc2c1 [AZD2811] + C[C@@H]1COCCN1C2=NC(=NC(=C2)C3(CC3)[S@](=N)(=O)C)C4=C5C=CNC5=NC=C4 [AZD6738] (first compound max 1 µM, 7x7, partner max 10 µM) | -0.0037 | -0.0116 | -0.0427 | -0.0301 | -0.0673 | -0.0841 | -0.0757 | -0.0764 | -0.0449 | -0.0215 | -0.0116 | -0.0506 | -0.063 | -0.0178 | -0.061 | -0.0325 | -0.0183 | -0.0205 | -0.0468 | -0.085
CCN(CCO)CCCOc1ccc2c(Nc3cc(CC(=O)Nc4cccc(F)c4)[nH]n3)ncnc2c1 [AZD2811] + O=C(c1cc(Cc2n[nH]c(=O)c3ccccc23)ccc1F)N1CCN(C(=O)C2CC2)CC1 [Olaparib] (first compound max 1 µM, 7x7, partner max 10 µM) | 0.0124 | 0.0119 | 0.0092 | -0.0127 | -0.0965 | -0.0668 | -0.0532 | -0.0189 | 0.0212 | -0.0206 | -0.041 | -0.0195 | 0.0018 | 0.0486 | -0.0231 | 0.0106 | 0.0123 | -0.0464 | -0.0227 | -0.0325
CN(CCO)CC[C@H](CSc1ccccc1)Nc1ccc(S(=O)(=O)NC(=O)c2ccc(N3CCC([C@@H](O)c4ccccc4-c4ccc(Cl)cc4)CC3)cc2)cc1S(=O)(=O)C(F)(F)F [AZD4320] + C1CN(CCC1(C(=O)N[C@@H](CCO)C2=CC=C(C=C2)Cl)N)C3=NC=NC4=C3C=CN4 [Capivasertib] (first compound max 1 µM, 7x7, partner max 3 µM) | -0.0059 | -0.0284 | -0.0354 | -0.0066 | 0.0026 | -0.0276 | 0.0421 | 0.0154 | -0.0441 | -0.0157 | -0.0525 | 0.0224 | -0.0613 | -0.0075 | -0.053 | -0.0764 | -0.0345 | -0.0345 | -0.0203 | -0.0429
CN(CCO)CC[C@H](CSc1ccccc1)Nc1ccc(S(=O)(=O)NC(=O)c2ccc(N3CCC([C@@H](O)c4ccccc4-c4ccc(Cl)cc4)CC3)cc2)cc1S(=O)(=O)C(F)(F)F [AZD4320] + C=CCn1c(=O)c2cnc(Nc3ccc(N4CCN(C)CC4)cc3)nc2n1-c1cccc(C(C)(C)O)n1 [AZD1775] (first compound max 1 µM, partner max 1 µM) | 0.102 | 0.0032 | 0.0078 | 0.0074 | 0.0178 | -0.0064 | -0.0722 | 0.0788 | 0.0126 | -0.0058 | 0.0069 | 0.0045 | -0.0108 | 0.0367 | -0.0525 | 0.0669 | -0.0438 | -0.0447 | 0.0733 | -0.0418
CN(CCO)CC[C@H](CSc1ccccc1)Nc1ccc(S(=O)(=O)NC(=O)c2ccc(N3CCC([C@@H](O)c4ccccc4-c4ccc(Cl)cc4)CC3)cc2)cc1S(=O)(=O)C(F)(F)F [AZD4320] + CCN(CCO)CCCOc1ccc2c(Nc3cc(CC(=O)Nc4cccc(F)c4)[nH]n3)ncnc2c1 [AZD2811] (first compound max 1 µM, 7x7, partner max 1 µM) | 0.0873 | -0.0073 | 0.0038 | -0.0398 | -0.0247 | -0.0032 | -0.0664 | -0.0082 | -0.0072 | -0.0231 | 0.0683 | 0.0034 | -0.0456 | 0.105 | -0.0127 | 0.0335 | -0.0425 | -0.0097 | 0.0255 | -0.0508
CN(CCO)CC[C@H](CSc1ccccc1)Nc1ccc(S(=O)(=O)NC(=O)c2ccc(N3CCC([C@@H](O)c4ccccc4-c4ccc(Cl)cc4)CC3)cc2)cc1S(=O)(=O)C(F)(F)F [AZD4320] + CN(C)CCCOc1ccc(-c2ccc3ncc4c(c3c2)n(C2CCOCC2)c(=O)n4C)cn1 [AZD0156] (first compound max 1 µM, 7x7, partner max 1 µM) | -0.0797 | -0.007 | -0.0031 | -0.0466 | -0.0151 | 0.0062 | -0.0645 | -0.0086 | -0.0152 | 0.0032 | -0.0155 | -0.0299 | -0.0486 | -0.0092 | -0.0266 | -0.0172 | -0.067 | -0.0086 | -0.0535 | -0.058
CN(CCO)CC[C@H](CSc1ccccc1)Nc1ccc(S(=O)(=O)NC(=O)c2ccc(N3CCC([C@@H](O)c4ccccc4-c4ccc(Cl)cc4)CC3)cc2)cc1S(=O)(=O)C(F)(F)F [AZD4320] + C[C@@H]1COCCN1C2=NC(=NC(=C2)C3(CC3)[S@](=N)(=O)C)C4=C5C=CNC5=NC=C4 [AZD6738] (first compound max 1 µM, 7x7, partner max 10 µM) | -0.011 | -0.0321 | -0.0315 | 0.0073 | -0.0283 | -0.0209 | -0.0752 | 0.0007 | 0.0161 | -0.0472 | -0.0311 | -0.0331 | -0.0965 | -0.0302 | -0.0367 | -0.0334 | -0.0873 | -0.0502 | 0.0245 | -0.0331
CN(CCO)CC[C@H](CSc1ccccc1)Nc1ccc(S(=O)(=O)NC(=O)c2ccc(N3CCC([C@@H](O)c4ccccc4-c4ccc(Cl)cc4)CC3)cc2)cc1S(=O)(=O)C(F)(F)F [AZD4320] + C[C@@H](Nc1cc(F)cc(F)c1)c1cc(C(=O)N(C)C)cc2c(=O)cc(N3CCOCC3)oc12 [AZD8186] (first compound max 1 µM, 7x7, partner max 3 µM) | 0.0889 | -0.0073 | 0.0484 | -0.0096 | 0.063 | 0.0582 | 0.0282 | 0.0161 | 0.0225 | -0.0104 | -0.018 | 0.0346 | 0.0005 | 0.0434 | 0.057 | 0.0328 | -0.0206 | 0.0176 | 0.0179 | -0.0096
CN(CCO)CC[C@H](CSc1ccccc1)Nc1ccc(S(=O)(=O)NC(=O)c2ccc(N3CCC([C@@H](O)c4ccccc4-c4ccc(Cl)cc4)CC3)cc2)cc1S(=O)(=O)C(F)(F)F [AZD4320] + Cn1cnc2c(F)c(Nc3ccc(Br)cc3Cl)c(C(=O)NOCCO)cc21 [Selumetinib] (first compound max 1 µM, 7x7, partner max 3 µM) | -0.0256 | 0.0454 | 0.04 | 0.0226 | -0.0113 | 0.0264 | -0.0211 | 0.0375 | 0.0148 | 0.0026 | -0.136 | -0.0045 | 0.0162 | -0.0061 | -0.0148 | 0.0308 | 0.0128 | 0.0086 | 0.0853 | -0.0195
COc1nnc2ccc(N3CCC(c4ccc(OCCN5CCN(C)C(=O)[C@H]5C)cc4)CC3)nn12 [AZD5153] + C=CCn1c(=O)c2cnc(Nc3ccc(N4CCN(C)CC4)cc3)nc2n1-c1cccc(C(C)(C)O)n1 [AZD1775] (first compound max 1 µM, partner max 1 µM) | 0.0085 | 0.0072 | -0.0496 | -0.0367 | -0.0271 | -0.0172 | -0.0724 | -0.0632 | -0.067 | -0.067 | -0.0646 | -0.0858 | -0.0461 | -0.0252 | -0.0118 | -0.0171 | -0.0369 | -0.0492 | 0.0252 | -0.0287
COc1nnc2ccc(N3CCC(c4ccc(OCCN5CCN(C)C(=O)[C@H]5C)cc4)CC3)nn12 [AZD5153] + CC1(C)CCC(CN2CCN(c3ccc(C(=O)NS(=O)(=O)c4ccc(NCC5CCOCC5)c([N+](=O)[O-])c4)c(Oc4cnc5[nH]ccc5c4)c3)CC2)=C(c2ccc(Cl)cc2)C1 [Venetoclax] (first compound max 1 µM, 7x7, partner max 1 µM) | -0.0287 | -0.0642 | -0.0437 | -0.0732 | 0.0162 | -0.0462 | -0.0499 | -0.058 | -0.0185 | -0.0708 | -0.0471 | -0.0245 | -0.0372 | 0.0192 | -0.109 | -0.041 | -0.0444 | -0.0493 | 0.0051 | -0.0224
COc1nnc2ccc(N3CCC(c4ccc(OCCN5CCN(C)C(=O)[C@H]5C)cc4)CC3)nn12 [AZD5153] + CCN(CCO)CCCOc1ccc2c(Nc3cc(CC(=O)Nc4cccc(F)c4)[nH]n3)ncnc2c1 [AZD2811] (first compound max 1 µM, 7x7, partner max 1 µM) | -0.035 | -0.0525 | -0.0611 | -0.0127 | -0.0163 | -0.0934 | -0.0414 | -0.0011 | -0.054 | -0.0224 | -0.052 | -0.0288 | -0.0217 | -0.0332 | -0.0257 | 0.0001 | -0.0421 | -0.0647 | -0.028 | -0.0259
